Assay results published in US4053635A, “Substituted amides of 3-methyl-4-phenyl-3-butenoic acid, with a high hypolipemizing activity” (Istituto Biochimico Italiano di Loredana Lorenzini S.a.s., priority 1974, dated 1977).

Experiments:
[1] = hypertriglyceridemia from ethanol (Table IV); assay type: in vivo, Sprague-Dawley male rat; conditions: 300 mg/kg daily, gastric intubation; ethanol twice a day, 4 days (controls 74.20±3.70, ethanol 135.80±13.30)
Experimental: | *Animal: Sprague-Dawley male rat of the average weight of 150 g. | Treatment: 0.31 ml. ethanol in 4 ml. water twice a day (in parenthesis, | the N. of animals) for 4 days. The substances have been provided by | gastric intubation at the daily dose of 300 mg/kg.

[2] = former works (U.S. Pat. No. 3,231,469; Canonica et al.); cited from earlier work
[3] = hypertriglyceridemia from Fructose (Table II); assay type: in vivo, Sprague-Dawley male rat; conditions: 200 mg/kg day by gastric probing, 5 days
Experimental: *Animal: Sprague-Dawley male rat, 150 g.; 6 rat sets. Treatment accordin
to E. A. Nikkila et al., Life sci.5,89,1966; substances administered at
the dose of 200 mg/kg day by gastric probing in two daily administrations

[4] = hyperlipemia from diet (Table III); assay type: in vivo, Sprague-Dawley male rat; conditions: 200 mg/kg/day per os; for Hepatic Cholesterol ± SE: hyperlipidic diet 4 weeks (diet alone 16.4±0.8); for Hepatic triglycerides ± SE: hyperlipidic diet 4 weeks (diet alone 56.4+3.8); for Triglyceridemia ± ES: hyperlipidic diet 4 weeks (diet alone 117.3±17.7); for Cholesterolemia ± SE: hyperlipidic diet 4 weeks (diet alone 129.9±9.3)
Text: °In parentheses, significativity towards the set treated only with
*Animal: Sprague-Dawley male rat of the initial weight of 120 g (in
parentheses the N. of animals).
Treatment: Hyperlipemia derived from hyperlipidic diet according to Nath N. et al., Nutrition J. 67, 289, 1959; the diet has been administered for 4 weeks. Each drug has been administered at the dose of 200/mg/kg/day per os for 4 weeks.

in vivo = conditions: rat, po, read-out: LD 50 per os in the rat
[5] = toxicity in the test animal; conditions: in vivo
[6] = hyperlipemia from ethanol (Table V); assay type: in vivo, Sprague-Dawley male rat; conditions: gastric intubation; for cholesterolemia: ethyl alcohol 10% 1 week (controls 85±6, ethanol 90±4); for Triglyceridemia ±SE: ethyl alcohol 10% 1 week (controls 87±14, ethanol 238±44)
Experimental: Sprague-Dawley male rat of the average weight of 150 g. ethyl alcohol 10%
in water for 1 week (in parenthesis, the N. of animals). The substances
have been administered by gastric intubation at the dose of 200 and 300
mg/kg/day. In experiments of subchronic toxicity, the diethylamide of […]

[7] = experiments of subchronic toxicity; assay type: in vivo; conditions: per os, 150 mg/kg/day and 300 mg/kg/day, 3 or 6 months
Experimental: mg/kg/day. In experiments of subchronic toxicity, the diethylamide of
the doses of 150 mg/kg/day and of 300 mg/kg/day for 3 or 6 months: the […]

[8] = 1st experiment (controls 41.7±1.7, fructose 62.9±5.5)
[9] = 2nd experiment (controls 45.6±4.7, fructose 94.0±12.1)
[10] = 3rd experiment (controls 77.1±12.1, fructose 155.2±19.2)
[11] = 4th experiment (controls 45.3±4.5, fructose 87.4±14.4)

SMILES	Triglyceridemia ±SE [1]	Triglyceridemia ±SE [3, 8]	Triglyceridemia ±SE [3, 9]	Triglyceridemia ±SE [3, 10]	Triglyceridemia ±SE [3, 11]	Hepatic Cholesterol ± SE [4]	Hepatic triglycerides ± SE [4]	Triglyceridemia ± ES [4]	Cholesterolemia ± SE [4]	LD50 (in vivo)	further results
C/C(=C\c1ccccc1)CC(=O)O [I, 3-methyl-4-phenyl-3-butenoic acid]	275.11±31.63 mg/100 ml	42.8±3.7 mg/100 ml	40.8±4.5 mg/100 ml	100.8±13.8 mg/100 ml	57.6±2.6 mg/100 ml	20.2±0.9 mg/g fresh tissue	37.7±5.6 mg/g fresh tissue	91.5±13.6 mg/100 ml	142.4±7.7 mg/100 ml		hypolipemic characteristics [2]: interesting hypolipemic characteristics
C/C(=C\c1ccccc1)CC(=O)NCCO [IIIa, Monoethanolamide of 3-methyl-4-phenyl-3-butenoic acid]		62.9±6.4 mg/100 ml									
C/C(=C\c1ccccc1)CC(=O)NC1CCCCC1 [IIIb, Monocyclohexylamide of 3-methyl-4-phenyl-3-butenoic acid]			59.1±7.5 mg/100 ml			22.1±1.1 mg/g fresh tissue	37.5±3.0 mg/g fresh tissue	81.5±7.9 mg/100 ml	135.7±11.6 mg/100 ml	3000 mg/kg	
C/C(=C\c1ccccc1)CC(=O)N(CCO)CCO [IIIc, Diethanolamide of 3-methyl-4-phenyl-3-butenoic acid]			69.6±3.9 mg/100 ml							1500 mg/kg	
CCN(CC)C(=O)C/C(C)=C/c1ccccc1 [IIId, Diethylamide of 3-methyl-4-phenyl-3-butenoic acid]	90.0±14.83 mg/100 ml			87.1±13.4 mg/100 ml		19.4±0.7 mg/g fresh tissue	25.9±3.8 mg/g fresh tissue	77.4±7.5 mg/100 ml	124.9±4.6 mg/100 ml		toxicity in the test animal [5]: low toxicity; cholesterolemia ([6]; 200 mg/kg/day): 77±3 mg/100 ml; Triglyceridemia ±SE ([6]; 200 mg/kg/day): 169±20 mg/100 ml; cholesterolemia ([6]; 300 mg/kg/day): 81±3 mg/100 ml; Triglyceridemia ±SE ([6]; 300 mg/kg/day): 117±20 mg/100 ml; tolerability in subchronic toxicity [7]: fairly well tolerated
C/C(=C\c1ccccc1)CC(=O)N1CCOCC1 [IIIe, Morpholide of 3-methyl-4-phenyl-3-butenoic acid]					61.1±5.1 mg/100 ml					1000 mg/kg	
C/C(=C\c1ccccc1)CC(N)=O [II]											hypolipemic characteristics [2]: interesting hypolipemic characteristics
CCOC(=O)C(C)(C)Oc1ccc(Cl)cc1 [chlofibrate, ethyl ester of 2-(p-chlorophenoxy)-2-methyl propanoic acid, reference compound]	121.50±12.26 mg/100 ml	42.2±5.4 mg/100 ml	48.9±2.4 mg/100 ml	62.9±7.2 mg/100 ml	59.1±3.6 mg/100 ml	18.5±1 mg/g fresh tissue	30.3±2.5 mg/g fresh tissue	60.0±4.3 mg/100 ml	138.8±10.7 mg/100 ml		cholesterolemia ([6]; 200 mg/kg/day): 70±3 mg/100 ml; Triglyceridemia ±SE ([6]; 200 mg/kg/day): 183±29 mg/100 ml
